This is an account of results in ChEMBL document CHEMBL3991601, “The target landscape of clinical kinase drugs” (Science, 2017).

pKd: −log10 of the molar value. The source made the active and inactive calls. For most assays here, no stated cut-off is given here; in the data, actives have a measured Kd and inactives only a lower limit. Some results are limits rather than exact numbers.

Experiment [1] addresses Glycogen synthase kinase-3 alpha (Homo sapiens, UniProt P49840).
Experiment [2] has as its target RAC-alpha serine/threonine-protein kinase (Homo sapiens, UniProt P31749).
In experiment [3] the target is T1, Septin-9 (Homo sapiens, UniProt Q9UHD8).
T1 sequence (Q9UHD8 whole entry): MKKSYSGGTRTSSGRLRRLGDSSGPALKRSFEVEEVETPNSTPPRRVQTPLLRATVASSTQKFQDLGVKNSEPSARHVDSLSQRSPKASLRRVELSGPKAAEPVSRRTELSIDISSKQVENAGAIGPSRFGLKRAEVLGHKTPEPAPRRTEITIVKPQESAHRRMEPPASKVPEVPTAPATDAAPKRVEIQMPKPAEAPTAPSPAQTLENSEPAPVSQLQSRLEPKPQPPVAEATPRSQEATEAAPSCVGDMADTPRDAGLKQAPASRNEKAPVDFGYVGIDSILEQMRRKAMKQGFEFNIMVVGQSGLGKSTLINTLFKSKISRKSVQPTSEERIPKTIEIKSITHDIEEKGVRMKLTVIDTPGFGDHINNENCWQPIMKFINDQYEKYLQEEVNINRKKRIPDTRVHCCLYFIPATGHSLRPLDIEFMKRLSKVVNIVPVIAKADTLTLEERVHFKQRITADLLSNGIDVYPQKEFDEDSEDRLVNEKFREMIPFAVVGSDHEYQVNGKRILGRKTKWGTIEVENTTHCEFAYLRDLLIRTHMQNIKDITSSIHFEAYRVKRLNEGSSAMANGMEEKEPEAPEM

Experiment [4] addresses Ephrin type-A receptor 5 (Homo sapiens, UniProt P54756).
Experiment [5] concerns the target Serine/threonine-protein kinase pim-1 (Homo sapiens, UniProt P11309).
Experiment [6] concerns the target Tyrosine-protein kinase ABL1 (Homo sapiens, UniProt P00519).
Experiment [7] concerns the target Dual specificity tyrosine-phosphorylation-regulated kinase 1A (Homo sapiens, UniProt Q13627).
In experiment [8] the target is T2, Mitogen-activated protein kinase kinase kinase 6 (Homo sapiens, UniProt O95382).
T2 sequence (O95382 whole entry): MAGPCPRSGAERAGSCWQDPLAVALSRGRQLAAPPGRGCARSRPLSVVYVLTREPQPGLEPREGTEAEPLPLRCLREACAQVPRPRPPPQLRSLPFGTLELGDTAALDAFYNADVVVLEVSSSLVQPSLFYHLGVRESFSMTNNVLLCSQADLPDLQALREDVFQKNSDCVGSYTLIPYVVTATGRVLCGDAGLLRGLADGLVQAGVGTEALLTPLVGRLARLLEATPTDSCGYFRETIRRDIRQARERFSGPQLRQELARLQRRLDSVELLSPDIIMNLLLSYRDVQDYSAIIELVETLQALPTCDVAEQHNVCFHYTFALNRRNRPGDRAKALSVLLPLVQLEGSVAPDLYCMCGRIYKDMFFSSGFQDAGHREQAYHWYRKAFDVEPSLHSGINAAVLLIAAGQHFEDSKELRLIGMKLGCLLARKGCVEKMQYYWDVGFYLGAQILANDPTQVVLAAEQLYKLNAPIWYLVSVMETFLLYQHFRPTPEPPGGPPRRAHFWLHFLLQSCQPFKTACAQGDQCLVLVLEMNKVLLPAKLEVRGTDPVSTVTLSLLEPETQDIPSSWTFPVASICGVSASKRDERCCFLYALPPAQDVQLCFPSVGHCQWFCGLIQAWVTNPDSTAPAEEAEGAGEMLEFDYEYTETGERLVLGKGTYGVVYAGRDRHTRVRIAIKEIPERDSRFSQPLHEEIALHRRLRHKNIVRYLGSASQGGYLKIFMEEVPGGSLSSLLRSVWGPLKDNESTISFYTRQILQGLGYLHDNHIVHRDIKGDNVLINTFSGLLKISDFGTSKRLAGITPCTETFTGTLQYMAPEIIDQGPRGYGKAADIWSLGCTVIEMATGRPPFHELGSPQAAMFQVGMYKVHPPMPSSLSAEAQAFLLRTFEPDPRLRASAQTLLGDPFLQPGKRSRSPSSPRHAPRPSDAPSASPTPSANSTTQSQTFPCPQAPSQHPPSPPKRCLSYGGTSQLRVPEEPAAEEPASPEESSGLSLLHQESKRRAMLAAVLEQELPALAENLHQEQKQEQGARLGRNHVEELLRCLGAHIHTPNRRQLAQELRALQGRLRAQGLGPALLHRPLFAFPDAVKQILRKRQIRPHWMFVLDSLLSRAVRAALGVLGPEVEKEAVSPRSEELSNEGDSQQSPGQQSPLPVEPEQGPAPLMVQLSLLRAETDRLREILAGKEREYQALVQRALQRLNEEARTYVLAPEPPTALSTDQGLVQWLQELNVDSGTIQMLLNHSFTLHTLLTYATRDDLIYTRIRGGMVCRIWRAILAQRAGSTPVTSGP

Experiment [9] addresses Tyrosine-protein kinase Lyn (Homo sapiens, UniProt P07948).
The target in experiment [10] is Tyrosine-protein kinase CSK (Homo sapiens, UniProt P41240).

As a reminder, the Kd is the equilibrium constant for the complex coming apart. Usually pKd stands for the negative decadic logarithm of the Kd, by convention in mol/L. Read a low pKd as a large Kd.

Serine/threonine-protein kinase pim-1, sequence (P11309 whole entry): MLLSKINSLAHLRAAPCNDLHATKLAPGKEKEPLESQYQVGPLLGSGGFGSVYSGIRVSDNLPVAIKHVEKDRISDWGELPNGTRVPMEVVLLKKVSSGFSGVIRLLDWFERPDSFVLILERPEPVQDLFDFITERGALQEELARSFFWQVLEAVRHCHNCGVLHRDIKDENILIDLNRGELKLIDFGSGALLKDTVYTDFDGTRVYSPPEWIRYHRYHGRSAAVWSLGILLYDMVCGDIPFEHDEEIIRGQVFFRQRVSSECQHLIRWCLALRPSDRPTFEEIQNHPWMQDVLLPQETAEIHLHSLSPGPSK
RAC-alpha serine/threonine-protein kinase, sequence (P31749 whole entry): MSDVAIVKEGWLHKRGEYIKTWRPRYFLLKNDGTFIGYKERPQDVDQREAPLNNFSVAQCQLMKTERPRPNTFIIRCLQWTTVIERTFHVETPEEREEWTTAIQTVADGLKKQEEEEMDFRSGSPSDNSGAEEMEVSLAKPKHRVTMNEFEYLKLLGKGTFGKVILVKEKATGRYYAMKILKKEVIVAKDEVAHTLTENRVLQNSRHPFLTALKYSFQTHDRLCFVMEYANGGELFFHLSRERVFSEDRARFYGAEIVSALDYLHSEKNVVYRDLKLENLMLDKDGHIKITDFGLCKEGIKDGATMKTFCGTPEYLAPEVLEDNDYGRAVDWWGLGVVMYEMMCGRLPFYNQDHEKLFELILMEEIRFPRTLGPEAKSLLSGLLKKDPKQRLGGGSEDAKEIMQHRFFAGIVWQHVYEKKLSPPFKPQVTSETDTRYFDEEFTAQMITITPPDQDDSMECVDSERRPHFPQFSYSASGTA
Glycogen synthase kinase-3 alpha, sequence (P49840 whole entry): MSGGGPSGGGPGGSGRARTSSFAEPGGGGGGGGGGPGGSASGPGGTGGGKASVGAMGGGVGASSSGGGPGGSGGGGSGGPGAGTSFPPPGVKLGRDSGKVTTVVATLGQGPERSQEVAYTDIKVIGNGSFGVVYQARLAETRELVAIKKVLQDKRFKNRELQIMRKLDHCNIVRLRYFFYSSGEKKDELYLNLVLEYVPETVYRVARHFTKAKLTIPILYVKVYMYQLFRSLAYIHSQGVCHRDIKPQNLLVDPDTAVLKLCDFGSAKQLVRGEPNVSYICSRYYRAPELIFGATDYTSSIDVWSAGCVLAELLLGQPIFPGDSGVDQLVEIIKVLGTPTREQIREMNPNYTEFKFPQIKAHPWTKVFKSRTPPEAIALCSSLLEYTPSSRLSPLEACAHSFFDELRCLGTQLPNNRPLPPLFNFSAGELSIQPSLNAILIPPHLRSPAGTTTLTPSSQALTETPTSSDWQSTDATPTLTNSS
Tyrosine-protein kinase CSK, sequence (P41240 whole entry): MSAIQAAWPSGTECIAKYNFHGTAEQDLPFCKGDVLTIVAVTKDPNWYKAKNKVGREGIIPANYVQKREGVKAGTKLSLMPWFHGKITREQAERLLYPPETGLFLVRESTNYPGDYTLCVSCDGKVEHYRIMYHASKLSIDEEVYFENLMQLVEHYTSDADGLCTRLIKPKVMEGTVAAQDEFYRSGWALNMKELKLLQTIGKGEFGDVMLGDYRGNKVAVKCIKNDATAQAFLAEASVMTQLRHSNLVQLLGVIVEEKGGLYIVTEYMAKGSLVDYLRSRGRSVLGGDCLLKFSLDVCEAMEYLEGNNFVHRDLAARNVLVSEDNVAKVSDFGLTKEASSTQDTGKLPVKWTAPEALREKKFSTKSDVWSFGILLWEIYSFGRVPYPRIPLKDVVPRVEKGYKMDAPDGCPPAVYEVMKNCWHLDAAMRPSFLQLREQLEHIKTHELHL
Tyrosine-protein kinase Lyn, sequence (P07948 whole entry): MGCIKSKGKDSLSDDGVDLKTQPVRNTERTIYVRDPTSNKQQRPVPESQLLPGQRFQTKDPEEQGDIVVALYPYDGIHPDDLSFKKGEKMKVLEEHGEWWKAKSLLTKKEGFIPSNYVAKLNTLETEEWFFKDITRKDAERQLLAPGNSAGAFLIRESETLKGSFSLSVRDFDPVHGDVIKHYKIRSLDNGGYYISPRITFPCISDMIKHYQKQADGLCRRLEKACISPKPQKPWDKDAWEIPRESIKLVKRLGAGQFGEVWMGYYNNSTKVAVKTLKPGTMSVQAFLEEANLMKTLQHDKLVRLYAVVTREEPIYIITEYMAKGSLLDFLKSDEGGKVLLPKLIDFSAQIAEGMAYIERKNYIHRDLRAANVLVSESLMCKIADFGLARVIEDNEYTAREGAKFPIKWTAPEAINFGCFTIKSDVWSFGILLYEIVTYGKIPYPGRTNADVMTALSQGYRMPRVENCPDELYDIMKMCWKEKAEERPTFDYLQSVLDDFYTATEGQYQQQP
Ephrin type-A receptor 5, sequence (P54756 whole entry): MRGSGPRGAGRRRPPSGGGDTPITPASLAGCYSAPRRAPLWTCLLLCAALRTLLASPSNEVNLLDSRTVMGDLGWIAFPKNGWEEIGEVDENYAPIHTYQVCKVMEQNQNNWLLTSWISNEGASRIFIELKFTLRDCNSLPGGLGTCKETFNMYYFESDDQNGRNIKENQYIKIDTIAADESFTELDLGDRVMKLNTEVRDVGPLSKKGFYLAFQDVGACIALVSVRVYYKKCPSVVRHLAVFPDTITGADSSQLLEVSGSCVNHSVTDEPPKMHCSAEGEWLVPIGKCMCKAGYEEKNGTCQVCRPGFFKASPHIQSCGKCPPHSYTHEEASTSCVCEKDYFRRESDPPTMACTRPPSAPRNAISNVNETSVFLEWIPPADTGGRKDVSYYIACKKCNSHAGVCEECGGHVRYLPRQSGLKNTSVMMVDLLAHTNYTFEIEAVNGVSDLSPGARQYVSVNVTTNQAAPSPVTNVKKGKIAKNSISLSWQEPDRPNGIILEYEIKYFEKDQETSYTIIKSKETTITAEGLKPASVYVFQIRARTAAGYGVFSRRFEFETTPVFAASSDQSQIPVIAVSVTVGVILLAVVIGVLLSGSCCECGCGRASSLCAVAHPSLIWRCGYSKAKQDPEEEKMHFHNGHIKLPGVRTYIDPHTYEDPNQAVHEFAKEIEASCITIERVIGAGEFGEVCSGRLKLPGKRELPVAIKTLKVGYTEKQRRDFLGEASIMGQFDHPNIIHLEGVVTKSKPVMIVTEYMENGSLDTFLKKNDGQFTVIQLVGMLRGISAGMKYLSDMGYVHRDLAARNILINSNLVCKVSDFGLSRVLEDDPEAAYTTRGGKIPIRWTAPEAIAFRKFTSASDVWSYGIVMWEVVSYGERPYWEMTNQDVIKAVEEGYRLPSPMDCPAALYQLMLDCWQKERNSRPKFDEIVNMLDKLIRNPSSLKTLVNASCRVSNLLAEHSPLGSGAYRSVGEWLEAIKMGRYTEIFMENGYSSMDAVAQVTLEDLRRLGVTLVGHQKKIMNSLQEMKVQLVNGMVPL
Tyrosine-protein kinase ABL1, sequence (P00519 whole entry): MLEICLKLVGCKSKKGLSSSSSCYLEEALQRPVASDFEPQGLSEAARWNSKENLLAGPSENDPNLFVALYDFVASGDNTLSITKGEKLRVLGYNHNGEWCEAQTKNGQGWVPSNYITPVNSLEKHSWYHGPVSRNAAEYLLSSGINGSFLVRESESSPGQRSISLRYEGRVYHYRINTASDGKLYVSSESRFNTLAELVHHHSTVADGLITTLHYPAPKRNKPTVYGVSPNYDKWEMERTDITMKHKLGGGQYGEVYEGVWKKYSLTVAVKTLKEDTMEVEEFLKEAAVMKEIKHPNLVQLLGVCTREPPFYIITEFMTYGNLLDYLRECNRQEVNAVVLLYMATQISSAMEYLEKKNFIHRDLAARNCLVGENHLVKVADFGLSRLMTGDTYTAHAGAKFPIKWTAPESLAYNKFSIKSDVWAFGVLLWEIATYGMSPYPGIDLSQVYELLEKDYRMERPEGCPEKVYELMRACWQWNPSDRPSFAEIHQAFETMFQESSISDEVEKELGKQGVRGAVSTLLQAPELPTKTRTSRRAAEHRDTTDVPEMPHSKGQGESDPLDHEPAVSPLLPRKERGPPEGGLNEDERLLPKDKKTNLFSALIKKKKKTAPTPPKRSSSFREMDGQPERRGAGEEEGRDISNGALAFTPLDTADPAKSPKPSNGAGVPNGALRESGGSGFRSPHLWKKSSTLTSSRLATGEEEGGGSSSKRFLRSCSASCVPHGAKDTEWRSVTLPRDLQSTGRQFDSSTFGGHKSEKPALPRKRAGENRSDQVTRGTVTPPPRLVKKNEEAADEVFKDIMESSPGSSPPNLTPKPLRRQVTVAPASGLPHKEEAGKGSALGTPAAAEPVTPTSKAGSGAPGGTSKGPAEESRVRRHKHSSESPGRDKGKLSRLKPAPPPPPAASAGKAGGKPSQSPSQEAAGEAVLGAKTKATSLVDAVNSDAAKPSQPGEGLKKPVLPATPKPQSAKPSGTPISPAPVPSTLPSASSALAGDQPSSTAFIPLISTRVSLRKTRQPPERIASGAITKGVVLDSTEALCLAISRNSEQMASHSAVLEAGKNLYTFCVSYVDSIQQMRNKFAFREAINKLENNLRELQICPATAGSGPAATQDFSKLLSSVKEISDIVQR

For the molecule `C[C@@H](Nc1cc(F)cc(F)c1)c1cc(C(=O)N(C)C)cc2c(=O)cc(N3CCOCC3)oc12` [AZD-8186], the Kd in [1], in experiment [2], in experiment [3], in experiment [4], in experiment [5] and in experiment [6] was > 30 µM (inactive) in each case. The Kd in experiment [7], in experiment [8], in [9] and in experiment [10] was > 30 µM (inactive) in each case.
As for `COc1cc(OC)c(/C=C/S(=O)(=O)Cc2ccc(OC)c(NCC(=O)O)c2)c(OC)c1` [RIGOSERTIB], the Kd in experiment [1], in experiment [2], in experiment [3], in [4], in [5] and in experiment [6] was > 30 µM (inactive) in each case. For the same molecule, the Kd in experiment [7], in [8], in experiment [9] and in experiment [10] was > 30 µM (inactive) each time.
Regarding `CN1N=C(N)c2cn([C@@H]3O[C@H](COP(=O)(O)O)[C@@H](O)[C@H]3O)c3ncnc1c23` [TRICIRIBINE PHOSPHATE], the Kd in experiment [1], in experiment [2], in [3], in experiment [4], in experiment [6] and in [7] was > 30 µM (inactive) each time. Besides, the Kd in [8], in experiment [9] and in experiment [10] was > 30 µM (inactive) in each case.
For the molecule `Cc1nc(N)sc1-c1ccnc(Nc2ccc(N3CCOCC3)cc2)n1` [CYC-116], the Kd in experiment [3], in experiment [8] and in experiment [10] was > 30 µM (inactive) in each case.
In the case of `Cc1cc(Nc2cc(N3CCN(C)CC3)nc(/C=C/c3ccccc3)n2)n[nH]1` [ENMD-2076], the Kd in [3], in experiment [4], in experiment [8], in experiment [9] and in experiment [10] was > 30 µM (inactive) each time.
On to `O=C(Nc1cccc(Cl)c1)Nc1ncc(CCNc2ncnc3ccsc23)s1` [SNS-314], for which the Kd in experiment [3], in [4], in experiment [8], in [9] and in experiment [10] was > 30 µM (inactive) throughout.
For the molecule `Nc1nc(N)c2nc(-c3cccc(O)c3)c(-c3cccc(O)c3)nc2n1` [TG100-115], the Kd in experiment [3] and in experiment [6] was > 30 µM (inactive) in each case.
As for `CN1CCN(c2ccc3nc(-c4c(N)c5c(F)cccc5[nH]c4=O)[nH]c3c2)CC1` [DOVITINIB], the Kd in experiment [3] is > 30 µM (inactive).
With `COc1cc2nccc(Oc3ccc(NC(=O)Nc4cc(C)on4)c(Cl)c3)c2cc1OC` [TIVOZANIB], the Kd in experiment [1] was > 30 µM (inactive); in experiment [2], > 30 µM (inactive); in [3] it was > 30 µM (inactive); in experiment [4], 0.601 µM (active); in [5], > 30 µM (inactive); in [7] it was > 30 µM (inactive). The Kd in experiment [8] was > 30 µM (inactive); in experiment [9] it was 2.02 µM (active); in experiment [10], > 30 µM (inactive).
For the molecule `CN1CCC(CNc2ccc3ncc(-c4cccc(OC(F)(F)F)c4)n3n2)CC1` [SGI-1776], the Kd in experiment [1], in [2], in experiment [3], in experiment [4], in experiment [6] and in [7] was > 30 µM (inactive) throughout. The Kd in experiment [8], in experiment [9] and in experiment [10] was > 30 µM (inactive) throughout.
Turning to `CCc1cnn2c(NCc3ccc[n+]([O-])c3)cc(N3CCCC[C@H]3CCO)nc12` [DINACICLIB], the Kd in experiment [1] was 1.47 µM (active); in experiment [2], > 30 µM (inactive); in experiment [3], > 30 µM (inactive); in experiment [4] it was > 30 µM (inactive); in experiment [8], > 30 µM (inactive); in experiment [9] it was > 30 µM (inactive). The Kd in experiment [10] is > 30 µM (inactive).
With `Cn1ncc(Cl)c1-c1cc(C(=O)N[C@H](CN)Cc2cccc(F)c2)sc1Cl` [AFURESERTIB], the Kd in [1], in experiment [3], in [4], in experiment [5], in [6] and in [7] was > 30 µM (inactive) throughout. In addition, the Kd in experiment [8], in experiment [9] and in experiment [10] was > 30 µM (inactive) each time.
As for `OCCn1cc(-c2cnc3nnn(Cc4ccc5ncccc5c4)c3n2)cn1` [PF-04217903], the Kd in experiment [2], in experiment [3], in experiment [4], in [8], in experiment [9] and in experiment [10] was > 30 µM (inactive) throughout.
As for `COCCNCc1ccc(-c2cc3nccc(Oc4ccc(NC(=S)NC(=O)Cc5ccc(F)cc5)cc4F)c3s2)nc1` [GLESATINIB], the Kd in experiment [1] was > 30 µM (inactive); in [2] it was > 30 µM (inactive); in [3], > 30 µM (inactive); in experiment [4], > 30 µM (inactive); in [5], > 30 µM (inactive); in experiment [6] it was 0.241 µM (active). Also, the Kd in [7], in experiment [8] and in experiment [10] was > 30 µM (inactive) throughout.
As for `N[C@@H]1CCCN(c2c(/C=C3\SC(=O)NC3=O)cccc2-c2ccccc2)C1`, the Kd in [1], in experiment [2], in experiment [3], in experiment [6], in [7] and in experiment [8] was > 30 µM (inactive) throughout. Further, the Kd in experiment [9] and in experiment [10] was > 30 µM (inactive) each time.
Consider `CCn1c(-c2nonc2N)nc2c(C#CC(C)(C)O)ncc(OC[C@H]3CCCNC3)c21` [GSK-690693], for which the Kd in experiment [3] was > 30 µM (inactive).
With `COc1cc2nccc(Oc3ccc(NC(=O)NC4CC4)c(Cl)c3)c2cc1C(N)=O` [LENVATINIB], the Kd in experiment [1], in [2], in experiment [3], in [4], in experiment [5] and in experiment [7] was > 30 µM (inactive) each time. Moreover, the Kd in [9] and in [10] was > 30 µM (inactive) each time. The same molecule showed a pKd in experiment [8] of 5.80.
In the case of `Cc1cn(-c2cc(NC(=O)c3ccc(C)c(Nc4nccc(-c5cccnc5)n4)c3)cc(C(F)(F)F)c2)cn1` [NILOTINIB], the Kd in experiment [3] was > 30 µM (inactive).
